Marks after values point to notes of the source that are not given here.
Legend:
[1] = test system: isolated renal cortical cells (IRCC); experiment: Time and concentration cytotoxicity study, LDH release in IRCC; assay type: cell-based, male Fischer 344 rats; settings: for Cytotoxicity (LDH release), time and concentration response: 0.5 or 1.0 mM, 15-120 min, significant difference from DMSO control, p < 0.05
Method: To determine the comparative nephrotoxic potential of the four TCNBs in IRCC, a time and concentration response study was performed starting at 15 min and 0.5 or 1.0 mM and adjusting the times tested based on the results (Figure 2).

renal cortical slices = settings: cited from earlier work
[2] = test system: isolated renal cortical cells (IRCC); experiment: Effect of antioxidant or biotransformation inhibitor pretreatment on TCNB cytotoxicity, LDH release in IRCC; settings: for Effect of pretreatment on 3,4,5-TCNB cytotoxicity: 0.5 mM 3,4,5-TCNB, 30 min exposure; for Effect of pretreatment on 3,4,5-TCNB cytotoxicity / Effect of pretreatment on 2,3,4-TCNB cytotoxicity / Effect of pretreatment on 2,4,5-TCNB cytotoxicity / Effect of pretreatment on 2,4,6-TCNB cytotoxicity: IRCC; for Effect of pretreatment on 2,3,4-TCNB cytotoxicity: 1.0 mM 2,3,4-TCNB, 60 min exposure; for Effect of pretreatment on 2,4,5-TCNB cytotoxicity: 1.0 mM 2,4,5-TCNB; for Effect of pretreatment on 2,4,5-TCNB cytotoxicity / Effect of pretreatment on 2,4,6-TCNB cytotoxicity: 90 min exposure; for Effect of pretreatment on 2,4,6-TCNB cytotoxicity: 1.0 mM 2,4,6-TCNB; for % of lactate dehydrogenase release, PreTx: pretreatment compound alone, no TCNB; for % of lactate dehydrogenase release, PreTx / % of lactate dehydrogenase release, PreTx + TCNB: mean ± S.E., n = 4
Method: Untreated rats were anesthetized with pentobarbital (75 mg/kg, i.p.) and isolated renal cortical cells (IRCC) were obtained by using the collagenase perfusion method. Initial cell viability was determined by measuring trypan blue (2% w/v) exclusion and lactate dehydrogenase (LDH) release. […] IRCC were then exposed to various concentrations of a TCNB (0, 0.5, or 1.0 mM) for 15, 30, 60, 90, or 120 min. Following the incubation period, flasks were removed and placed on ice. Samples (0.5 mL) were taken for LDH release assays. Briefly, the samples were centrifuged (3000× g, 3 min), the was supernatant decanted and saved, and the pellet was disrupted with 1 mL of 10% Triton X-100 solution to release cellular LDH activity. LDH activity was then determined in each fraction (supernatant and pellet) as previously described using a kinetic assay based on the amount of NADH produced from NAD [57]. The LDH released was expressed as % of total (supernatant plus pellet).
Concentrations used in these experiments were 0.5 mM (3,4,5-TCNB) or 1.0 mM (2,3,4-, 2,4,5- and 2,4,6-TCNB). Incubation times with a TCNB added were 30 min (3,4,5-TCNB), 60 min (2,3,4-TCNB), or 90 min (2,4,5- and 2,4,6-TCNB). The pretreatment times and concentrations for all of the pretreatments are shown below in Table 5.

[3] = Table 1 experiments, 60 min incubation
[4] = Table 2 experiments, 90 min incubation
[5] = pretreatment compound followed by 1.0 mM 2,3,4-TCNB, 60 min
[6] = pretreatment compound followed by 1.0 mM 2,4,5-TCNB, 90 min
[7] = pretreatment compound followed by 1.0 mM 2,4,6-TCNB, 90 min
[8] = Table 3 experiments, 90 min incubation

SMILES	Cytotoxicity (LDH release), time and concentration response [1]	Concentration at which cytotoxicity was evident ([1]; as early as 30 min) [µM]	Lowest concentration reducing pyruvate-stimulated gluconeogenesis and increasing LDH release (renal cortical slices) [mM]	Effect of pretreatment on 3,4,5-TCNB cytotoxicity [2]	Effect of pretreatment on 2,3,4-TCNB cytotoxicity [2]	Effect of pretreatment on 2,4,5-TCNB cytotoxicity [2]	Effect of pretreatment on 2,4,6-TCNB cytotoxicity [2]	% of lactate dehydrogenase release, PreTx [2, 3]	% of lactate dehydrogenase release, PreTx [2, 4]	% of lactate dehydrogenase release, PreTx + TCNB [2, 5]	% of lactate dehydrogenase release, PreTx + TCNB [2, 6]	% of lactate dehydrogenase release, PreTx + TCNB [2, 7]	% of lactate dehydrogenase release, PreTx [2, 8]
O=[N+]([O-])c1cc(Cl)c(Cl)cc1Cl [2,4,5-TCNB]	induced cytotoxicity at 90 min (0.5 mM) and 120 min (0.5 and 1.0 mM), but not at 60 min with either concentration												
O=[N+]([O-])c1c(Cl)cc(Cl)cc1Cl [2,4,6-TCNB]	cytotoxicity was observed at 30 and 60 min (0.5 and 1.0 mM) but not at 15 min with either concentration	500											
O=[N+]([O-])c1ccc(Cl)c(Cl)c1 [3,4-DCNB, 3,4-dichloronitrobenzene]			0.5										
O=C1O[C@H]([C@@H](O)CO)C(O)=C1O [Ascorbate]				attenuation of 3,4,5-TCNB cytotoxicity	attenuation of 2,3,4-TCNB cytotoxicity	attenuation of 2,4,5-TCNB cytotoxicity	attenuation of 2,4,6-TCNB cytotoxicity	12 ± 1%	12 ± 1%	14 ± 1 ^d %	16 ± 2 ^d %	17 ± 2 ^c,d %	
N[C@@H](CCC(=O)N[C@@H](CS)C(=O)NCC(=O)O)C(=O)O [Glutathione]				attenuation of 3,4,5-TCNB cytotoxicity	attenuation of 2,3,4-TCNB cytotoxicity	attenuation of 2,4,5-TCNB cytotoxicity	attenuation of 2,4,6-TCNB cytotoxicity	13 ± 1%	15 ± 1%	14 ± 1 ^d %	17 ± 2 ^d %	20 ± 1 ^c,d %	
COc1ccc2c(c1)c(CC(=O)O)c(C)n2C(=O)c1ccc(Cl)cc1 [Indomethacin]				reduced	reduced		reduced	13 ± 1%	16 ± 2%	16 ± 2 ^c,d %	21 ± 2 ^c %	21 ± 1 ^c,d %	16 ± 1 ^c %
NNC(=O)c1ccncc1 [Isoniazid]				at least some attenuation	reduced			11 ± 1%	10 ± 1%	19 ± 1 ^c,d %	34 ± 1 ^c,d %	28 ± 2 ^c %	
O=C(O)CC(S)C(=O)O (stereo not drawn) [Mercaptosuccinate]				reduced	reduced			10 ± 1%	17 ± 1 ^c %	10 ± 1 ^d %	24 ± 1 ^c %	31 ± 1 ^c %	16 ± 1%
Cn1cc[nH]c1=S [Methimazole]				reduced	reduced		reduced	9 ± 1%	14 ± 2%	11 ± 1 ^d %	23 ± 2 ^c %	31 ± 2 ^c %	17 ± 1%
CC(C)(C(=O)c1cccnc1)c1cccnc1 [Metyrapone]				reduced			reduced	12 ± 1%	16 ± 1 ^c %	17 ± 1 ^c %	28 ± 2 ^c %	27 ± 2 ^c %	15 ± 1%
CC(=O)N[C@@H](CS)C(=O)O [NAC, N-acetyl-L-cysteine]				attenuation of 3,4,5-TCNB cytotoxicity	attenuation of 2,3,4-TCNB cytotoxicity	attenuation of 2,4,5-TCNB cytotoxicity	not reduced	13± 1%	15 ± 1%	16 ± 1 ^c,d %	17 ± 1 ^d %	23 ± 2 ^c %	13 ± 1%
CCCCOCCOCCOCc1cc2c(cc1CCC)OCO2 [PiBx, Piperonyl butoxide]				reduced	reduced			10 ± 1%	11 ± 2%	12 ± 1 ^c,d %	24 ± 3 ^c %	22 ± 1 ^c %	13 ± 1%
CCN(CC)C(=S)S [diethyldithiocarbamate, Diethyldithiocarbamate]				at least some attenuation									
CCCCCCCCN [n-Octylamine, N-Octylamine]				reduced	reduced			16 ± 1 ^c %	11 ± 2%	19 ± 1 ^c,d %	32 ± 2 ^c %	29 ± 3 ^c %	11 ± 1%
Nc1ccc(S(=O)(=O)Nc2ccnn2-c2ccccc2)cc1 [sulfaphenazole, Sulfaphenazole]				at least some attenuation									
S=P(N1CC1)(N1CC1)N1CC1 [thio-tepa, Thio-tepa]				at least some attenuation									
Cc1c(C)c2c(c(C)c1O)CC[C@@](C)(CCC[C@H](C)CCC[C@H](C)CCCC(C)C)O2 [α–Tocopherol, α-Tocopherol]				attenuation of 3,4,5-TCNB cytotoxicity	attenuation of 2,3,4-TCNB cytotoxicity	attenuation of 2,4,5-TCNB cytotoxicity	not reduced	11± 1%	13 ± 1%	12 ± 2 ^d %	14 ± 3 ^d %	25 ± 2 ^c %	14 ± 1%
